Converted amounts (≈) assume the structure as drawn. Where two headings read alike, the source gives them in different places.

Data on one molecule can be found in paper PMC12736958 (Pharmaceutics, 2025).

A short description of data set [1]: equilibrium solubility of crystalline Cur in excipient solutions. In kind it is physicochemical. To be noted: read-out: equilibrium solubility (Cur con.). The method, then:
Excess crystalline Cur was suspended in each solution, vortexed (1 min), sonicated (10 min), and incubated (37 °C, 24 h). After incubation, suspensions were filtered (0.22 μm), and Cur concentration in the filtrate was quantified using HPLC/UV-Vis (HPLC/UV-Vis Method section). All experiments were performed in quadruplicate (n = 4).
Cur content in in vitro dissolution samples was quantified using a Waters 2695 Alliance HPLC system (Waters Corporation, Milford, MA, USA) equipped with a Waters 2998 photodiode array (PDA) detector. Separation was performed on an XBridge® C18 column (4.6 × 250 mm, 5.0 μm; Waters) maintained at 25 °C. The mobile phase, composed of water and methanol (80:20, v/v), was delivered isocratically at a flow rate of 1.0 mL/min. The injection volume was 10 μL, and detection was performed at 430 nm, and Cur eluted at approximately 4.80 min. […] All data were acquired in triplicate (n = 3) and processed using Empower®3 Software (Waters).

The test system of another data set is MDCK cells. As to the kind of experiment: cellular uptake study (LC-MS/MS of intracellular Cur). The conditions noted are these: 10 min incubation, 5 μg Cur-equivalent (10 μg/mL). Format: cell-based, canine. The method, then: MDCK cells were seeded in 24-well plates and cultured following the procedures described in Cytotoxicity Assay section. The cells were treated with 500 µL of complete DMEM medium (pH 7.4) containing crystalline Cur, amorphous Cur, binary Cur/P188 ASD (1:8, w/w), or ternary Cur/P188/TW80 or Cur/P188/SLS ASDs (1:8:1, w/w/w), at Cur-equivalent dose of 5 µg per well. After 10 min of incubation, the treatment was terminated by immediate removal of the medium. The cells were then washed three times with ice-cold PBS, lysed with 200 µL of 0.1% SDS (assisted by sonication), and dissolved in methanol at a 1:2 (v/v) ratio. The total intracellular Cur content was quantified using LC-MS/MS. All experiments were performed in quadruplicate (n = 4).
Cur quantification in cellular and rat plasma samples was carried out using a SCIEX QTRAP® 5500 LC-MS/MS system coupled with a SCIEX ExionLC^TM AC system (AB SCIEX, Framingham, MA, USA).
Separation was achieved on an Acquity UPLC® BEH C18 column (100 × 2.1 mm, 1.7 μm; Waters) maintained at 40 °C. […]
Mass spectrometric detection was performed using an IonDrive^TM Turbo V ion (SCIEX, Framingham, MA, USA) source operating in negative electrospray ionization (ESI) mode. Quantification was conducted via multiple reaction monitoring (MRM) at m/z 367.1→133.9 for Cur, and m/z 294.1→250.0 for diclofenac sodium (IS). […]

`COc1cc(/C=C/C(=O)CC(=O)/C=C/c2ccc(O)c(OC)c2)ccc1O` [Crystalline Cur, Curcumin]: the solubility thermodynamic at 24 h in data set [1] (aqueous P188/SLS solution (8 mg/mL + 1 mg/mL), pH 7, aqueous with cosolvent or surfactant or cyclodextrin, thermodynamic from solid, P188/SLS 8 mg/mL + 1 mg/mL in water, 37 °C) is 8.5 µg/mL; in data set [1] (aqueous P188/TW80 solution (8 mg/mL + 1 mg/mL), pH 7, aqueous with cosolvent or surfactant or cyclodextrin, thermodynamic from solid, P188/TW80 8 mg/mL + 1 mg/mL in water, 37 °C), 10.3 µg/mL; in data set [1] (aqueous P188 solution (8 mg/mL), pH 7, P188 8 mg/mL in water, 37 °C), under 0.1 µg/mL; in data set [1] (aqueous SLS solution (1 mg/mL), pH 7, SLS 1 mg/mL in water, 37 °C), under 0.1 µg/mL; in data set [1] (aqueous TW80 solution (1 mg/mL), pH 7, aqueous with cosolvent or surfactant or cyclodextrin, thermodynamic from solid, TW80 1 mg/mL in water, 37 °C), 9.1 µg/mL (≈ 24.7 µM); in data set [1] (thermodynamic from solid, pure water, pH 7.0, 37 °C, filtered 0.22 μm), under 0.1 µg/mL. Moreover, the “cellular uptake (% of the administered dose)” value with MDCK cells is listed as 0.2%.
